Test results published in patent US6613747B2, “6-O-carbamoyl ketolide antibacterials” (Ortho-McNeil Pharmaceutical, Inc., priority 2000, dated 2003).
In brackets after ≈: the same amount, converted by molar mass.

What was measured:
Assay in all cases: MIC, microdilution broth method (NCCLS)
Format in all cases: cell-based
E. coli OC2605 = conditions: A: E. coli OC2605, 35° C., 16-20 hours
Summary of the method: (§1)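 Two-fold serial compound dilutions in cation-adjusted Mueller-Hinton broth were inoculated at approximately 5×10^4 CFU/well from actively growing cultures, incubated at 35° C. for 16-20 hours, and growth was compared with compound-free control wells to give the MIC.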

E. faecalis ATCC29212 = conditions: C: E. faecalis ATCC29212, 35° C., 16-20 hours
Summary of the method: as §1

H. influenzae ATCC49247 = conditions: E: H. influenzae ATCC49247, 35° C., 16-20 hours
Summary of the method: as §1

S. aureus ATCC29213 = conditions: B: S. aureus ATCC29213, 35° C., 16-20 hours
Summary of the method: as §1

S. pneumoniae ATCC49619 = conditions: D: S. pneumoniae ATCC49619, 35° C., 16-20 hours
Summary of the method: as §1

Row | SMILES | MIC (E. coli OC2605) [µg/mL] | MIC (E. faecalis ATCC29212) [µg/mL] | MIC (H. influenzae ATCC49247) [µg/mL] | MIC (S. aureus ATCC29213) [µg/mL] | MIC (S. pneumoniae ATCC49619)
1 | CCC1OC(=O)C(C)(O)C(=O)C(C)C(OC2OC(C)CC(N(C)C)C2O)C(C)(OC(=O)NCC=Cc2ccc(-c3cnccn3)cc2)CC(C)C(=O)C(C)C2NC(=O)OC12C (stereo not drawn) [Compound 98] | >16 | 0.25 (≈ 0.293 µM) | 4 (≈ 4.69 µM) | 0.5 (≈ 0.587 µM) | 0.03 µg/mL (≈ 0.0352 µM)
2 | CCC1OC(=O)C(C)(F)C(=O)C(C)C(OC2OC(C)CC(N(C)C)C2O)C(C)(OC(=O)NCC=Cc2ccc(-c3cnccn3)cc2)CC(C)C(=O)C(C)C2NC(=O)OC12C (stereo not drawn) [Compound 101] | 8 (≈ 9.37 µM) | 0.12 (≈ 0.141 µM) | 2 (≈ 2.34 µM) | 0.25 (≈ 0.293 µM) | 0.03 µg/mL (≈ 0.0351 µM)
3 | CC[C@H]1OC(=O)[C@H](C)C(=O)[C@H](C)[C@@H](O[C@@H]2O[C@H](C)C[C@H](N(C)C)[C@H]2O)[C@](C)(OC(=O)NCCN2C(=O)c3ccccc3C2=O)C[C@@H](C)C(=O)[C@H](C)[C@H]2NC(=O)O[C@@]21C [Compound 109] | >16 | 2 (≈ 2.45 µM) | 16 (≈ 19.6 µM) | 8 (≈ 9.82 µM) | 0.25 µg/mL (≈ 0.307 µM)
4 | CC[C@H]1OC(=O)[C@H](C)C(=O)[C@H](C)[C@@H](O[C@@H]2O[C@H](C)C[C@H](N(C)C)[C@H]2O)[C@](C)(OC(=O)NCCNC(=O)c2ccc(-c3ccccc3)cc2)C[C@@H](C)C(=O)[C@H](C)[C@H]2NC(=O)O[C@@]21C [Compound 111] | >16 | 0.5 (≈ 0.578 µM) | 4 (≈ 4.62 µM) | 1 (≈ 1.16 µM) | 0.06 µg/mL (≈ 0.0694 µM)
5 | CC[C@H]1OC(=O)[C@H](C)C(=O)[C@H](C)[C@@H](O[C@@H]2O[C@H](C)C[C@H](N(C)C)[C@H]2O)[C@](C)(OC(=O)NCCNC(=O)c2cccnc2)C[C@@H](C)C(=O)[C@H](C)[C@H]2NC(=O)O[C@@]21C [Compound 112] | >16 | 2 (≈ 2.53 µM) | 16 (≈ 20.3 µM) | 16 (≈ 20.3 µM) | 0.5 µg/mL (≈ 0.633 µM)
6 | CC[C@H]1OC(=O)[C@H](C)C(=O)[C@H](C)[C@@H](O[C@@H]2O[C@H](C)C[C@H](N(C)C)[C@H]2O)[C@](C)(OC(=O)NCCNC(=O)c2cnc3ccccc3c2)C[C@@H](C)C(=O)[C@H](C)[C@H]2NC(=O)O[C@@]21C [Compound 113] | >16 | 1 (≈ 1.19 µM) | 8 (≈ 9.52 µM) | 4 (≈ 4.76 µM) | 0.06 µg/mL (≈ 0.0714 µM)
7 | CC[C@H]1OC(=O)[C@H](C)C(=O)[C@H](C)[C@@H](O[C@@H]2O[C@H](C)C[C@H](N(C)C)[C@H]2O)[C@](C)(OC(=O)NCCNCc2cnc3ccccc3c2)C[C@@H](C)C(=O)[C@H](C)[C@H]2NC(=O)O[C@@]21C [Compound 114] | >16 | 0.25 (≈ 0.303 µM) | 4 (≈ 4.84 µM) | 2 (≈ 2.42 µM) | 0.06 µg/mL (≈ 0.0726 µM)
8 | CC[C@H]1OC(=O)[C@H](C)C(=O)[C@H](C)[C@@H](O[C@@H]2O[C@H](C)C[C@H](N(C)C)[C@H]2O)[C@](C)(OC(=O)NCCNCc2ccc(-c3ncccn3)cc2)C[C@@H](C)C(=O)[C@H](C)[C@H]2NC(=O)O[C@@]21C [Compound 115] | >16 | 0.5 (≈ 0.586 µM) | 16 (≈ 18.8 µM) | 2 (≈ 2.34 µM) | 0.06 µg/mL (≈ 0.0703 µM)
9 | CC[C@H]1OC(=O)[C@H](C)C(=O)[C@H](C)[C@@H](O[C@@H]2O[C@H](C)C[C@H](N(C)C)[C@H]2O)[C@](C)(OC(=O)NCCN(C)Cc2cnc3ccccc3c2)C[C@@H](C)C(=O)[C@H](C)[C@H]2NC(=O)O[C@@]21C [Compound 119] | >16 | 0.25 (≈ 0.298 µM) | 8 (≈ 9.52 µM) | 4 (≈ 4.76 µM) | 0.06 µg/mL (≈ 0.0714 µM)
10 | CCC1OC(=O)C(C)(F)C(=O)C(C)C(OC2OC(C)CC(N(C)C)C2O)C(C)(OC(=O)NCC=Cc2ccc(-c3ncccn3)cc2)CC(C)C(=NO)C(C)C2NC(=O)OC12C (stereo not drawn) [Compound 123] | 16 (≈ 18.4 µM) | 0.12 (≈ 0.138 µM) | 4 (≈ 4.6 µM) | 0.25 (≈ 0.288 µM) | 0.03 µg/mL (≈ 0.0345 µM)
11 | CCC1OC(=O)C(C)(F)C(=O)C(C)C(OC2OC(C)CC(N(C)C)C2O)C(C)(OC(=O)NCC=Cc2ccc(-c3cccnn3)cc2)CC(C)C(=NO)C(C)C2NC(=O)OC12C (stereo not drawn) [Compound 125] | 16 (≈ 18.4 µM) | 0.25 (≈ 0.288 µM) | 2 (≈ 2.3 µM) | 0.5 (≈ 0.575 µM) | 0.06 µg/mL (≈ 0.069 µM)
12 | CCC1OC(=O)C(C)(F)C(=O)C(C)C(OC2OC(C)CC(N(C)C)C2O)C(C)(OC(=O)NCc2ccc(-c3ncccn3)cc2)CC(C)C(=NO)C(C)C2NC(=O)OC12C (stereo not drawn) [Compound 128] | >16 | 2 (≈ 2.37 µM) | 8 (≈ 9.49 µM) | 4 (≈ 4.75 µM) | 0.25 µg/mL (≈ 0.297 µM)
13 | CCC1OC(=O)C(C)(F)C(=O)C(C)C(OC2OC(C)CC(N(C)C)C2O)C(C)(OC(=O)NCC=Cc2ccnc(Br)c2)CC(C)C(=NO)C(C)C2NC(=O)OC12C (stereo not drawn) [Compound 130] | 8 (≈ 9.19 µM) | 0.12 (≈ 0.138 µM) | 0.5 (≈ 0.574 µM) | 0.25 (≈ 0.287 µM) | ≦0.015 μg/mL

The remaining lines, values ahead:

Row | MIC (E. coli OC2605) [µg/mL] | MIC (E. faecalis ATCC29212) [µg/mL] | MIC (H. influenzae ATCC49247) [µg/mL] | MIC (S. aureus ATCC29213) [µg/mL] | MIC (S. pneumoniae ATCC49619) | SMILES
14 | 16 (≈ 19.8 µM) | 0.06 (≈ 0.0741 µM) | 2 (≈ 2.47 µM) | 0.5 (≈ 0.617 µM) | 0.03 µg/mL (≈ 0.037 µM) | CC[C@H]1OC(=O)[C@H](C)C(=O)[C@H](C)[C@@H](O[C@@H]2O[C@H](C)C[C@H](N(C)C)[C@H]2O)[C@](C)(OC(=O)NCc2ccc(-c3cccnn3)cc2)C[C@@H](C)C(=O)[C@H](C)[C@H]2NC(=O)O[C@@]21C [Compound 97]
15 | >16 | 0.12 (≈ 0.141 µM) | 4 (≈ 4.68 µM) | 0.25 (≈ 0.293 µM) | 0.06 µg/mL (≈ 0.0703 µM) | CC[C@H]1OC(=O)[C@H](C)C(=O)[C@H](C)[C@@H](O[C@@H]2O[C@H](C)C[C@H](N(C)C)[C@H]2O)[C@](C)(OC(=O)NCCOCc2ccc(-c3ncccn3)cc2)C[C@@H](C)C(=O)[C@H](C)[C@H]2NC(=O)O[C@@]21C [Compound 107]
16 | >16 | 0.25 (≈ 0.287 µM) | 4 (≈ 4.59 µM) | 0.5 (≈ 0.573 µM) | 0.06 µg/mL (≈ 0.0688 µM) | CCC1OC(=O)C(C)(F)C(=O)C(C)C(OC2OC(C)CC(N(C)C)C2O)C(C)(OC(=O)NCCOCc2ccc(-c3ncccn3)cc2)CC(C)C(=O)C(C)C2NC(=O)OC12C (stereo not drawn) [Compound 108]
17 | >16 | 8 (≈ 11.7 µM) | 16 (≈ 23.4 µM) | 16 (≈ 23.4 µM) | 1 µg/mL (≈ 1.46 µM) | CC[C@H]1OC(=O)[C@H](C)C(=O)[C@H](C)[C@@H](O[C@@H]2O[C@H](C)C[C@H](N(C)C)[C@H]2O)[C@](C)(OC(=O)NCCN)C[C@@H](C)C(=O)[C@H](C)[C@H]2NC(=O)O[C@@]21C [Compound 110]
18 | >16 | 1 (≈ 1.29 µM) | 8 (≈ 10.3 µM) | 2 (≈ 2.58 µM) | 0.12 µg/mL (≈ 0.155 µM) | CC[C@H]1OC(=O)[C@H](C)C(=O)[C@H](C)[C@@H](O[C@@H]2O[C@H](C)C[C@H](N(C)C)[C@H]2O)[C@](C)(OC(=O)NCCNCc2cccnc2)C[C@@H](C)C(=O)[C@H](C)[C@H]2NC(=O)O[C@@]21C [Compound 116]
19 | >16 | 0.5 (≈ 0.577 µM) | >16 | 2 (≈ 2.31 µM) | 0.06 µg/mL (≈ 0.0692 µM) | CC[C@H]1OC(=O)[C@H](C)C(=O)[C@H](C)[C@@H](O[C@@H]2O[C@H](C)C[C@H](N(C)C)[C@H]2O)[C@](C)(OC(=O)NCCN(C)Cc2ccc(-c3ncccn3)cc2)C[C@@H](C)C(=O)[C@H](C)[C@H]2NC(=O)O[C@@]21C [Compound 117]
20 | >16 | 1 (≈ 1.27 µM) | 16 (≈ 20.3 µM) | 8 (≈ 10.1 µM) | 0.12 µg/mL (≈ 0.152 µM) | CC[C@H]1OC(=O)[C@H](C)C(=O)[C@H](C)[C@@H](O[C@@H]2O[C@H](C)C[C@H](N(C)C)[C@H]2O)[C@](C)(OC(=O)NCCN(C)Cc2cccnc2)C[C@@H](C)C(=O)[C@H](C)[C@H]2NC(=O)O[C@@]21C [Compound 118]
21 | 16 (≈ 18.6 µM) | 0.12 (≈ 0.14 µM) | 4 (≈ 4.66 µM) | 0.25 (≈ 0.291 µM) | 0.03 µg/mL (≈ 0.0349 µM) | CCC1OC(=O)C(C)(F)C(=O)C(C)C(OC2OC(C)CC(N(C)C)C2O)C(C)(OC(=O)NCC=Cc2cn(-c3ncccn3)cn2)CC(C)C(=NO)C(C)C2NC(=O)OC12C (stereo not drawn) [Compound 124]
22 | 8 (≈ 9.5 µM) | 0.12 (≈ 0.143 µM) | 2 (≈ 2.38 µM) | 0.25 (≈ 0.297 µM) | 0.03 µg/mL (≈ 0.0356 µM) | CCC1OC(=O)C(C)(F)C(=O)C(C)C(OC2OC(C)CC(N(C)C)C2O)C(C)(OC(=O)NCC=Cc2cnc3ccccc3c2)CC(C)C(=NO)C(C)C2NC(=O)OC12C (stereo not drawn) [Compound 127]
23 | 8 (≈ 10.1 µM) | 0.12 (≈ 0.152 µM) | 1 (≈ 1.26 µM) | 0.25 (≈ 0.316 µM) | 0.03 µg/mL (≈ 0.0379 µM) | CCC1OC(=O)C(C)(F)C(=O)C(C)C(OC2OC(C)CC(N(C)C)C2O)C(C)(OC(=O)NCC=Cc2ccccc2)CC(C)C(=NO)C(C)C2NC(=O)OC12C (stereo not drawn) [Compound 129]
24 | 16 (≈ 18.8 µM) | 0.25 (≈ 0.294 µM) | 2 (≈ 2.35 µM) | 0.25 (≈ 0.294 µM) | 0.03 µg/mL (≈ 0.0353 µM) | CC[C@H]1OC(=O)[C@H](C)C(=O)[C@H](C)[C@@H](O[C@@H]2O[C@H](C)C[C@H](N(C)C)[C@H]2O)[C@](C)(OC(=O)NC/C=C/c2ccc(-c3ncccn3)cc2)C[C@@H](C)C(=NO)[C@H](C)[C@H]2NC(=O)O[C@@]21C [Compound 133]
